Measured values taken from US20210121527A1, “METHODS OF TREATING MINIMAL RESIDUAL CANCER” (ICAHN SCHOOL OF MEDICINE AT MOUNT SINAI, priority 2018, published 2021).

Legend:
Assay in all cases: DiscoveRx scanMAX kinase profiling
Type in all cases: binding
[1] = molecular target: T1, PIK3C2B (Homo sapiens, UniProt O00750); conditions: read-out: Direct inhibitory activity on PIK3C2B (KINOMEscan)
T1 construct: purchased DiscoverX (San Diego, Calif.)
Experimental: (§1) Biochemical assays: Recombinant human EIF2AK3 (PERK) catalytic domain (amino acids 536-1116; Cat # PV5107), GFP-eIF2a (Cat # PV4809) substrate, and Terbium-labelled phospho-eIF2a antibody (Cat # PR8956B) were purchased from Invitrogen (Carlsbad, Calif.). HIS-SUMO-GCN2 catalytic domain (amino acids 584-1019) was expressed and purified from E. coli. TR-FRET kinase assays were performed in the absence or presence of inhibitors in a reaction buffer consisting of 50 mM HEPES, pH 7.5, 10 mMMgCl2, 1.0 mM EGTA, and 0.01% Brij-35, and 100-200 nM GFP-eIF2a substrate. […] Following the addition of test compound, the reaction was initiated by addition of enzyme and incubated at room temperature for 45 minutes. The reaction was stopped by addition of EDTA to a final concentration of 10 mM and Terbium-labelled phospho-eIF2α antibody was added at a final concentration of 2 nM and incubated for 90 minutes. The resulting fluorescence was monitored in an EnVison® Multilabel reader (PerkinElmer, Waltham, Mass.). TR-FRET ratios and the resulting IC50 values were determined from the fitted inhibition curves. Biochemical specificity profiling was performed at Cerep (Redmond, Wash.) and DiscoverX (San Diego, Calif.).

[2] = molecular target: T2, SRC (Homo sapiens, UniProt P12931); conditions: read-out: Direct inhibitory activity on SRC (KINOMEscan)
T2 construct: purchased DiscoverX (San Diego, Calif.) scanMAX
Experimental: as §1

[3] = molecular target: T3, EGFR (Homo sapiens, UniProt P00533); conditions: read-out: Direct inhibitory activity on EGFR (KINOMEscan)
T3 construct: purchased DiscoverX (San Diego, Calif.) scanMAX
Experimental: as §1

[4] = molecular target: T4, AKT1 (Homo sapiens, UniProt P31749); conditions: read-out: Direct inhibitory activity on AKT1 (KINOMEscan)
T4 construct: purchased DiscoverX (San Diego, Calif.) scanMAX
Experimental: as §1

[5] = molecular target: T5, PIK3CG (Homo sapiens, UniProt P48736); conditions: read-out: Direct inhibitory activity on PIK3CG (KINOMEscan)
T5 construct: purchased DiscoverX (San Diego, Calif.)
Experimental: as §1

[6] = molecular target: T6, ERK5 (MAPK7) (Homo sapiens, UniProt Q13164); conditions: read-out: Direct inhibitory activity on ERK5 (KINOMEscan)
T6 construct: purchased DiscoverX (San Diego, Calif.) scanMAX
Experimental: as §1

[7] = molecular target: T7, ERK8 (MAPK15) (Homo sapiens, UniProt Q8TD08); conditions: read-out: Direct inhibitory activity on ERK8 (KINOMEscan)
T7 construct: purchased DiscoverX (San Diego, Calif.) scanMAX
T7 sequence (Q8TD08 1-544): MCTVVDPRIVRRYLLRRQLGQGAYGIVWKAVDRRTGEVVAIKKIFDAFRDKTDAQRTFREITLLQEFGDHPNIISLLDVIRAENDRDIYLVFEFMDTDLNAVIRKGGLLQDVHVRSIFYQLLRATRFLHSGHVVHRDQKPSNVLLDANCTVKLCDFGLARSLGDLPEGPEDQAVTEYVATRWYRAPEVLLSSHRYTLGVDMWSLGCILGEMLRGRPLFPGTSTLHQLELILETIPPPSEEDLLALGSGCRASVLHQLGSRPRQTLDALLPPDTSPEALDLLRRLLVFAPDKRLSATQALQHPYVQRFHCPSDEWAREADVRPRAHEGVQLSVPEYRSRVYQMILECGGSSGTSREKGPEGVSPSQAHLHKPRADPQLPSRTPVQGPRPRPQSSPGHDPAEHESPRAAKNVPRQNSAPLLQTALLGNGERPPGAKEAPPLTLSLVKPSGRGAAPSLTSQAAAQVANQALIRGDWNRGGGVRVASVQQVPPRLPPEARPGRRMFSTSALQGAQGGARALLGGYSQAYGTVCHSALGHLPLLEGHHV
Experimental: as §1

[8] = molecular target: T8, S6K1 (RPS6KB1) (Homo sapiens, UniProt P23443); conditions: read-out: Direct inhibitory activity on S6K1 (KINOMEscan)
T8 construct: purchased DiscoverX (San Diego, Calif.) scanMAX
Experimental: as §1

[9] = molecular target: T9, PYK2 (PTK2B) (Homo sapiens, UniProt Q14289); conditions: read-out: Direct inhibitory activity on PYK2 (KINOMEscan)
T9 construct: purchased DiscoverX (San Diego, Calif.)
Experimental: as §1

[10] = molecular target: T10, AKT3 (Homo sapiens, UniProt Q9Y243); conditions: read-out: Direct inhibitory activity on AKT3 (KINOMEscan)
T10 construct: purchased DiscoverX (San Diego, Calif.) scanMAX
Experimental: as §1

[11] = molecular target: T11, PIK3CA (Homo sapiens, UniProt P42336); conditions: read-out: Direct inhibitory activity on PIK3CA (KINOMEscan)
T11 construct: purchased DiscoverX (San Diego, Calif.)
Experimental: as §1

[12] = molecular target: T12, CSK (Homo sapiens, UniProt P41240); conditions: read-out: Direct inhibitory activity on CSK (KINOMEscan)
T12 construct: purchased DiscoverX (San Diego, Calif.)
Experimental: as §1

[13] = molecular target: T13, ERK1 (MAPK3) (Homo sapiens, UniProt P27361); conditions: read-out: Direct inhibitory activity on ERK1 (KINOMEscan)
T13 construct: purchased DiscoverX (San Diego, Calif.) scanMAX
Experimental: as §1

T12 sequence (P41240 whole entry): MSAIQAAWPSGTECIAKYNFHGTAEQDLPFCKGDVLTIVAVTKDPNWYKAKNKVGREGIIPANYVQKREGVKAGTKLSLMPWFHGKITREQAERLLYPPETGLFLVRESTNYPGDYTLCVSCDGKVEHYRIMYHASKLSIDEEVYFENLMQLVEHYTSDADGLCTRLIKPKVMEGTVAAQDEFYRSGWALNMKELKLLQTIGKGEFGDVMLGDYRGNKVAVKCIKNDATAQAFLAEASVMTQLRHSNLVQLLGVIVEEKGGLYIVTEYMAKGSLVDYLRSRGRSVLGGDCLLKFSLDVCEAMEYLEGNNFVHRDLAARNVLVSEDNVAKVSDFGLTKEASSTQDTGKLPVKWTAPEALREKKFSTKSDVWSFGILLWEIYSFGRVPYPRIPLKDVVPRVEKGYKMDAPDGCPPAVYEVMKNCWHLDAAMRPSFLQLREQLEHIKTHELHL
T1 sequence (O00750 whole entry): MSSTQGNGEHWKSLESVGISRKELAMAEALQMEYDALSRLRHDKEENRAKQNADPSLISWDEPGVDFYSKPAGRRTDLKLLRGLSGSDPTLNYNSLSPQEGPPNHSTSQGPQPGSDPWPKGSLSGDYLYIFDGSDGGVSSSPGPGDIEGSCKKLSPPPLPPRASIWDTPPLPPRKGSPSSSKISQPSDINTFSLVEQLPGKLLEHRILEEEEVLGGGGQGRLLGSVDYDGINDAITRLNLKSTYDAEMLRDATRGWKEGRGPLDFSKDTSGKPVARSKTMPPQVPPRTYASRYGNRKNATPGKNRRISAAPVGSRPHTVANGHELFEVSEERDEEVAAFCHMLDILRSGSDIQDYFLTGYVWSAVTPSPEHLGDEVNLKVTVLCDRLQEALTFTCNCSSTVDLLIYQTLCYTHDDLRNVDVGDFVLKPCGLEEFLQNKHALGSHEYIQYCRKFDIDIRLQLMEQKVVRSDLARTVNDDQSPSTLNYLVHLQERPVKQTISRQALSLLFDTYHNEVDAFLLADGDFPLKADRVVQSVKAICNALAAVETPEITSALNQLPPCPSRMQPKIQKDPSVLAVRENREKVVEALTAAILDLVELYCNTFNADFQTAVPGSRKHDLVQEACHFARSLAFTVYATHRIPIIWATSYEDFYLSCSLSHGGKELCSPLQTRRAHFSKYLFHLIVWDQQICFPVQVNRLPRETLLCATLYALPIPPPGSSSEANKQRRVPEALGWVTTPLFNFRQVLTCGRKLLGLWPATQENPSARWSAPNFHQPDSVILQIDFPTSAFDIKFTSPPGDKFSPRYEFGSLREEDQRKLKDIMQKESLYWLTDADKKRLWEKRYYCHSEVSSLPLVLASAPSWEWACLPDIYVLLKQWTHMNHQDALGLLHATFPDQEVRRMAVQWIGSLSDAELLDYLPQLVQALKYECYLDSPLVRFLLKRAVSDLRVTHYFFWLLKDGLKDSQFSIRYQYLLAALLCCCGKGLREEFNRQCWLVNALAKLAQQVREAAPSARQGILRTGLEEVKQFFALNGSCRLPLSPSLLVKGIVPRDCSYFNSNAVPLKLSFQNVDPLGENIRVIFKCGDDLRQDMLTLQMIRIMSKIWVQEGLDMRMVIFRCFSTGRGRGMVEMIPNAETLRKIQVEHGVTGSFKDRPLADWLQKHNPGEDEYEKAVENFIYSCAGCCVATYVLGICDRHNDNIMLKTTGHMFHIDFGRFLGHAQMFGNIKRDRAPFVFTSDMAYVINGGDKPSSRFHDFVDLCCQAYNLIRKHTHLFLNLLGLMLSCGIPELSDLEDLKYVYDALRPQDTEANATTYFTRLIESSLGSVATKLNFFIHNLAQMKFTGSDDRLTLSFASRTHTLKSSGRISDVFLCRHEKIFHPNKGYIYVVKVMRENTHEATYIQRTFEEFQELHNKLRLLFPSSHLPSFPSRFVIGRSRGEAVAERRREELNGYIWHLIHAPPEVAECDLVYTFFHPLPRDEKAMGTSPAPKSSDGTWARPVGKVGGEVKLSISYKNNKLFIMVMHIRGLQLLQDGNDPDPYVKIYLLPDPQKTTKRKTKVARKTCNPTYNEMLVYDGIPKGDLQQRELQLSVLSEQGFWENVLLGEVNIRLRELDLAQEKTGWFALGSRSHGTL
T2 sequence (P12931 whole entry): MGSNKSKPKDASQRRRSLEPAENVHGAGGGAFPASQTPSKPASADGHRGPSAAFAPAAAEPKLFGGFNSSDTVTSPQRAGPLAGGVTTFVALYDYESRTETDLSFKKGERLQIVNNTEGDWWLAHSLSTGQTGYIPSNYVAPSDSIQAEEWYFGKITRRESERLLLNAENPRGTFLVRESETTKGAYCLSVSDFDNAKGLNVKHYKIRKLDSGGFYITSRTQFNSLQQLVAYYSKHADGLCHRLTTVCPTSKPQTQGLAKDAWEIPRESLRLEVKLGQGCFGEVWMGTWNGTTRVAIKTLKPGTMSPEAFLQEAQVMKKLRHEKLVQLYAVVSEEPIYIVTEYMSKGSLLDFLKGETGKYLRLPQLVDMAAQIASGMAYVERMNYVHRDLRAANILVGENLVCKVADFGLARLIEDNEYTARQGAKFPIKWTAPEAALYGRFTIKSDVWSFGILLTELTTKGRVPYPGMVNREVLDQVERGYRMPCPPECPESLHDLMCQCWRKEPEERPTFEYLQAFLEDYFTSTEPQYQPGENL
T4 sequence (P31749 whole entry): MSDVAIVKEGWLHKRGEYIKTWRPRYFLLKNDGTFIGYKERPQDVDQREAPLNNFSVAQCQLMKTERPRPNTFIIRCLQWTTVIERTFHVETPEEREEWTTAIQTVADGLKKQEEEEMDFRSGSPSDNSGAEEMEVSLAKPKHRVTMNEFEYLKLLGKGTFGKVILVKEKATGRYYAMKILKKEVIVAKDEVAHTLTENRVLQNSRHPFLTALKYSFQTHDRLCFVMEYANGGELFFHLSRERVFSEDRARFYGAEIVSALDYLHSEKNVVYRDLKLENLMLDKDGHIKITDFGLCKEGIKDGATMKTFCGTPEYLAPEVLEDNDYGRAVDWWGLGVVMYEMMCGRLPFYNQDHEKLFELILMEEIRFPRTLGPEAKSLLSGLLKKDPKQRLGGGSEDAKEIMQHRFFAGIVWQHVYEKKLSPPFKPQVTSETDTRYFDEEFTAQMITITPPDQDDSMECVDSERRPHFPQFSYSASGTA
T10 sequence (Q9Y243 whole entry): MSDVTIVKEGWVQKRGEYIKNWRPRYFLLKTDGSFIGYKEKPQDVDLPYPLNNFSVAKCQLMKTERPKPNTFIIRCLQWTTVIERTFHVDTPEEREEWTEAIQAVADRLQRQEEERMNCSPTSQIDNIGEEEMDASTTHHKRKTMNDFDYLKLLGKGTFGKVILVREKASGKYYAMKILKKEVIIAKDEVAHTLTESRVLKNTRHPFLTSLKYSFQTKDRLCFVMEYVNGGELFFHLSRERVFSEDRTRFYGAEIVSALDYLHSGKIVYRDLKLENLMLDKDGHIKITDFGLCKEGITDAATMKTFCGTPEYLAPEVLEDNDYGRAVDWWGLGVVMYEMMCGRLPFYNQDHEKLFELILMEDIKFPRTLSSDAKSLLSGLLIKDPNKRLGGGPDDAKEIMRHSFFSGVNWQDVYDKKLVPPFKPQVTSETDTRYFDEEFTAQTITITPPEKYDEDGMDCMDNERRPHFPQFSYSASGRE
T9 sequence (Q14289 whole entry): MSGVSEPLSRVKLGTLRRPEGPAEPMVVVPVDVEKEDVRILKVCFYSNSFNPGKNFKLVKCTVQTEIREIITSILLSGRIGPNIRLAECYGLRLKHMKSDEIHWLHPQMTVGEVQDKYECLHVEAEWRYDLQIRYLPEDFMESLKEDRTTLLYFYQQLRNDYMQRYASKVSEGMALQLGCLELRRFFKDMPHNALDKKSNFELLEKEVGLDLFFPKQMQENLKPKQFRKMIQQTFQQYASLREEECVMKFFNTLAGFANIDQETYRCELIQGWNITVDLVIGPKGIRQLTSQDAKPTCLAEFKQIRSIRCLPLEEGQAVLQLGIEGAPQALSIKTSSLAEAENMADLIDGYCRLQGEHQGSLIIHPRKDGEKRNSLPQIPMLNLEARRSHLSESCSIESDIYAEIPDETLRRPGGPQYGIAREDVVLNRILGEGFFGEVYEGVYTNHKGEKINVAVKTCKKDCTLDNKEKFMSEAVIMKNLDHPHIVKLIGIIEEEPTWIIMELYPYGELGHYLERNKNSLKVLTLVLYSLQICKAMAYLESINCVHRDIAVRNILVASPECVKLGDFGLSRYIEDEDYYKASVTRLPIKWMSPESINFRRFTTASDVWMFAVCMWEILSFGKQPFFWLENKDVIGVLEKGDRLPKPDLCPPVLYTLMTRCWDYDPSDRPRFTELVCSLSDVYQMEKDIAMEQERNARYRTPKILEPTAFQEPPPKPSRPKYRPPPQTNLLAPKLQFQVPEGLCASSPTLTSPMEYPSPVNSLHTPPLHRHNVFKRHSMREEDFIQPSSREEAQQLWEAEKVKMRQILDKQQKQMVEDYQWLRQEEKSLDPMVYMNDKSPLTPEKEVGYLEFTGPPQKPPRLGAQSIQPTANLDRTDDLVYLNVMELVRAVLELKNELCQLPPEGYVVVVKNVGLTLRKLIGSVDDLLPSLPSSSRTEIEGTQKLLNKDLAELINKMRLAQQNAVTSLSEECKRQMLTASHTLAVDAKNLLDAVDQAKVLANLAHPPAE
T13 sequence (P27361 whole entry): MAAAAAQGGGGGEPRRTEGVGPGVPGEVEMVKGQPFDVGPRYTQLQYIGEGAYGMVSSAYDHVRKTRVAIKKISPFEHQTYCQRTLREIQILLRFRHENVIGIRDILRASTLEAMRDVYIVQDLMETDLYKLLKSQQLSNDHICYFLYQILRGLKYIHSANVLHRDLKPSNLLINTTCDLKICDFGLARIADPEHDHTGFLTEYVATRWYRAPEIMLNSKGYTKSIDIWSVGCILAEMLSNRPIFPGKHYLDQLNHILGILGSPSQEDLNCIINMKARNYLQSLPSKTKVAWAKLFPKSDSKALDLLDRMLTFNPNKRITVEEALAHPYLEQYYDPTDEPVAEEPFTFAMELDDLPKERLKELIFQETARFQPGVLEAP

| Structure (SMILES) | inhibition at 0.2 µM [1] | inhibition at 2 µM [1] | inhibition at 20 µM [1] | inhibition at 0.2 µM [2] | inhibition at 2 µM [2] | inhibition at 20 µM [2] | inhibition at 0.2 µM [3] | inhibition at 2 µM [3] | inhibition at 20 µM [3] | inhibition at 0.2 µM [4] | inhibition at 2 µM [4] | inhibition at 20 µM [4] | inhibition at 0.2 µM [5] | inhibition at 2 µM [5] | inhibition at 20 µM [5] | inhibition at 0.2 µM [6] | inhibition at 2 µM [6] | inhibition at 20 µM [6] | inhibition at 0.2 µM [7] | inhibition at 2 µM [7] | further results |
| --- | --- | --- | --- | --- | --- | --- | --- | --- | --- | --- | --- | --- | --- | --- | --- | --- | --- | --- | --- | --- | --- |
| Cc1cccc(CC(=O)N2CCc3c2ccc(-c2cn(C)c4ncnc(N)c24)c3F)n1 [GSK2656157, reference compound] | 0% | 9% | 22% | 10% | 45% | 69% | 18% | 16% | 50% | 14% | 32% | 0% | 36% | 47% | 50% | 4% | 23% | 12% | 0% | 3% | inhibition at 20 µM [7]: 6%; inhibition at 0.2 µM [8]: 0%; inhibition at 2 µM [8]: 30%; inhibition at 20 µM [8]: 56%; inhibition at 0.2 µM [9]: 0%; inhibition at 2 µM [9]: 0%; inhibition at 20 µM [9]: 3%; inhibition at 0.2 µM [10]: 24%; inhibition at 2 µM [10]: 7%; inhibition at 20 µM [10]: 0%; inhibition at 0.2 µM [11]: 0%; inhibition at 2 µM [11]: 8%; inhibition at 20 µM [11]: 0%; inhibition at 0.2 µM [12]: 0%; inhibition at 2 µM [12]: 33%; inhibition at 20 µM [12]: 64%; inhibition at 0.2 µM [13]: 0%; inhibition at 2 µM [13]: 17%; inhibition at 20 µM [13]: 0% |
| Cc1cc(NC(=O)[C@H](O)c2cc(F)cc(F)c2)ccc1-c1cnc(N)c(C(=O)NC(C)C)c1 [LY4, 2-amino-5-[4-[[(2R)-2-(3,5-difluorophenyl)-2-hydroxy-acetyl]amino]-2-methyl-phenyl]-N-isopropyl-pyridine-3-carboxamide] | 40% | 39% | 94% | 0% | 1% | 11% | 30% | 23% | 16% | 0% | 5% | 0% | 24% | 0% | 26% | 0% | 0% | 4% | 0% | 0% | inhibition at 20 µM [7]: 0%; inhibition at 0.2 µM [8]: 31%; inhibition at 2 µM [8]: 0%; inhibition at 20 µM [8]: 24%; inhibition at 0.2 µM [9]: 0%; inhibition at 2 µM [9]: 0%; inhibition at 20 µM [9]: 6%; inhibition at 0.2 µM [10]: 0%; inhibition at 2 µM [10]: 0%; inhibition at 20 µM [10]: 13%; inhibition at 0.2 µM [11]: 9%; inhibition at 2 µM [11]: 0%; inhibition at 20 µM [11]: 8%; inhibition at 0.2 µM [12]: 31%; inhibition at 2 µM [12]: 0%; inhibition at 20 µM [12]: 14%; inhibition at 0.2 µM [13]: 2%; inhibition at 2 µM [13]: 18%; inhibition at 20 µM [13]: 0% |
